In patent US8883428B2, “Methods to determine atherosclerosis regression, plaque stabilization and cardiovascular risk” (The Regents of the University of California, priority 2009, dated 2014):

Tests used:
[1] = OxPL/apoA in patients treated with JTT-705, then placebo; assay type: in vivo, human; details: nineteen patients; active treatment followed by placebo; FIG. 4
Method: Patients were then taken off the JTT-705 and placed on placebo. […] Add 50 μl/well. […] Leave at room temperature for 1-2 hours. Wash plate as above. […] Incubate at room temperature for 1 hour. Wash plate with cell washer set at 4 washes. […] Keep in the dark. Read in Chemiluminescence detector as relative light units (RLU). All assays are run in triplicate.

[2] = patients with coronary artery disease already on statins; measured before and after treatment; FIG. 3
Method: OxPL/apoA was then measured before and after the treatment.
Determine amount of OxPL on apoA1: Add an apo A-1 capture antibody such as Sheep anti-Human Apolipoprotein A-1 (The Binding Site, Birmingham, England) at 5-10 μg/ml to TBS buffer (or PBS) for overnight incubation at 4° C. Add 50 μl/well. The next day, wash plates with an automatic plate washer, 3 times 200 μl/well. Postcoat wells with 1% BSA/TBS@100 μl/well, 30-45 min, then wash before adding plasma. Add 50 μl plasma diluted to 1:50 in the appropriate well. For row “H” use 50 μl 1% BSA in TBS (Dilution buffer) as the blank. Leave at room temperature for 1-2 hours. Wash plate as above. Dilute the secondary antibody (biotinylated E06@1 μg/ml) and add 50 μl/well. After 1 hr at room temperature, wash plates as above. Prepare alkaline phosphatase labeled neutrAvidin (for biotin antibodies) or alkaline phosphatase labeled goat anti-rabbit IgG diluted in buffer containing activators (at 1:20 dilution. The activators keep the alkaline phosphatase antibodies consistent for months.) Add 50 μl to each well. Incubate at room temperature for 1 hour. Wash plate with cell washer set at 4 washes. Add 25 μl of detector for alkaline phosphatase, such as Lumi-phos 530 (keep sterile) diluted 1:1 in dist. water. Then leave at room temp. for 1.5-2 hr. Keep in the dark. Read in Chemiluminescence detector as relative light units (RLU). […]

Structure (SMILES) | OxPL/apoA change during treatment [1] | OxPL/apoA change following treatment [2]
CCC(CC)CC1(C(=O)Nc2ccccc2SC(=O)C(C)C)CCCCC1 [JTT-705] | increased during the active treatment | –
O=C(O)c1cccnc1 [niacin] | – | increased significantly
